Data as given in US10807970B2 (priority 2016, dated 2020).

target: human σ1 receptor (Homo sapiens, UniProt Q99720); assay: Human σ1 receptor radioligand assay ([3H](+)-pentazocine, transfected HEK-293 membranes); type: binding; design: μ and σ1 dual binding: key to the marks not given beside the values; conditions: one class symbol for both Ki-σ1 (human σ1 receptor, A1) and Ki-μ (human μ-opioid receptor, A2)
In short: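 Membranes from HEK-293 cells transfected with human σ1 receptor (7 μg) incubated with 5 nM [3H](+)-pentazocine in 50 mM Tris-HCl pH 8, 120 min at 37° C. Non-specific binding defined with 10 μM haloperidol. Bound radioligand separated by filtration, washed with ice-cold 10 mM Tris-HCl pH 7.4, and counted by scintillation.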

Chain of human σ1 receptor (Q99720 whole entry): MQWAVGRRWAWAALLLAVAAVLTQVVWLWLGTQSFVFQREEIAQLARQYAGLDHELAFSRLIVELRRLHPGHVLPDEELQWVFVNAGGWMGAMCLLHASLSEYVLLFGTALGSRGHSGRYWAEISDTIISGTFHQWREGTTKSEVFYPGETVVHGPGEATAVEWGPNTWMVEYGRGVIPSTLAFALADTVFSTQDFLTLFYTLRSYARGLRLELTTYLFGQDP

| SMILES | μ and σ1 dual binding |
| --- | --- |
| C[C@H]1C[C@@](C(=O)c2ccccn2)(N2CCN(Cc3ccccc3)CC2)CCO1 [Example 155, ((2S,4S)-4-(4-benzylpiperazin-1-yl)-2-methyltetrahydro-2H-pyran-4-yl)(pyridin-2-yl)methanone] | ++ |
| CC1(N2CCN(Cc3ccccc3)CC2)CCOCC1 [Example 156, 1-Benzyl-4-(4-methyltetrahydro-2H-pyran-4-yl)piperazine] | ++ |
| CC[C@@]1(N2CCN(CCOC(C)C)CC2)CCO[C@@H](C)C1 [Example 158, 1-((2S,4R)-4-ethyl-2-methyltetrahydro-2H-pyran-4-yl)-4-(2-isopropoxyethyl)piperazine] | ++ |
| CC[C@]1(N2CCN(CCC(C)C)CC2)CCO[C@@H](C)C1 [Example 159, 1-((2S,4S)-4-ethyl-2-methyltetrahydro-2H-pyran-4-yl)-4-isopentylpiperazine] | ++ |
| CC[C@@]1(N2CCN(CCC(C)C)CC2)CCO[C@@H](C)C1 [Example 160, 1-((2S,4R)-4-ethyl-2-methyltetrahydro-2H-pyran-4-yl)-4-isopentylpiperazine] | ++ |
| CC(C)CCN1CCN([C@@]2(C)CCO[C@@H](C)C2)CC1 [Example 161, 1-((2S,4S)-2,4-dimethyltetrahydro-2H-pyran-4-yl)-4-isopentylpiperazine] | ++ |
| CC(C)CCN1CCN([C@]2(C)CCO[C@@H](C)C2)CC1 [Example 162, 1-((2S,4R)-2,4-dimethyltetrahydro-2H-pyran-4-yl)-4-isopentylpiperazine] | ++ |
| CC[C@]1(N2CCN(Cc3ccccc3)CC2)CCO[C@@H](C)C1 [Example 163, 1-benzyl-4-((2S,4S)-4-ethyl-2-methyltetrahydro-2H-pyran-4-yl)piperazine] | ++ |
| CC[C@@]1(N2CCN(Cc3ccccc3)CC2)CCO[C@@H](C)C1 [Example 164, 1-benzyl-4-((2S,4R)-4-ethyl-2-methyltetrahydro-2H-pyran-4-yl)piperazine] | ++ |
| CCC1(C2CCN(Cc3ccccc3)CC2)CCOC(C)(C)C1 (stereo not drawn) [Example 167, 1-Benzyl-4-(4-ethyl-2,2-dimethyltetrahydro-2H-pyran-4-yl)piperidine] | ++ |
| CC(C)CCN1CCN([C@@]2(C(=O)c3ccccn3)CCO[C@@H](C)C2)CC1 [Example 168] | ++ |
| CC(C)CCN1CCC([C@@]2(C(=O)c3ccccn3)CCO[C@@H](C)C2)CC1 [Example 171] | ++ |
| CC(C)OCCN1CCC([C@@]2(C(=O)c3ccccn3)CCO[C@@H](C)C2)CC1 [Example 172] | ++ |
| CCC1(C2CCN(CCc3ccccc3)CC2)CCOC(C)(C)C1 (stereo not drawn) [Example 173, 4-(4-ethyl-2,2-dimethyltetrahydro-2H-pyran-4-yl)-1-phenethylpiperidine] | ++ |
| CCC1(N2CCN(Cc3ccc(C#N)cc3)CC2)CCOCC1 [Example 174, 4-((4-(4-ethyltetrahydro-2H-pyran-4-yl)piperazin-1-yl)methyl)benzonitrile] | ++ |
| CCC1(N2CCN(Cc3ccc(F)cc3)CC2)CCOCC1 [Example 175, 1-(4-ethyltetrahydro-2H-pyran-4-yl)-4-(4-fluorobenzyl)piperazine] | ++ |
| CCC1(N2CCN(CCOC(C)C)CC2)CCOCC1 [Example 176, 1-(4-ethyltetrahydro-2H-pyran-4-yl)-4-(2-isopropoxyethyl)piperazine] | ++ |
| CC(C)CCN1CCN(C2(C(=O)c3ccccn3)CCOCC2)CC1 [Example 177, (4-(4-isopentylpiperazin-1-yl)tetrahydro-2H-pyran-4-yl)(pyridin-2-yl)methanone] | ++ |
| CC(C)CCN1CCN(C2(C)CCOCC2)CC1 [Example 178, 1-isopentyl-4-(4-methyltetrahydro-2H-pyran-4-yl)piperazine] | ++ |
| CCC1(N2CCN(CCC(C)C)CC2)CCOCC1 [Example 180, 1-(4-ethyltetrahydro-2H-pyran-4-yl)-4-isopentylpiperazine] | ++ |
| O=C(c1ccccn1)C1(N2CCN(Cc3ccc(F)cc3)CC2)CCOCC1 [Example 181, (4-(4-(4-fluorobenzyl)piperazin-1-yl)tetrahydro-2H-pyran-4-yl)(pyridin-2-yl)methanone] | ++ |
| CC1(N2CCN(Cc3ccc(F)cc3)CC2)CCOCC1 [Example 182, 1-(4-fluorobenzyl)-4-(4-methyltetrahydro-2H-pyran-4-yl)piperazine] | ++ |
| CC1(N2CCN(Cc3ccc(C#N)cc3)CC2)CCOCC1 [Example 183, 4-((4-(4-methyltetrahydro-2H-pyran-4-yl)piperazin-1-yl)methyl)benzonitrile] | ++ |
| CC(C)OCCN1CCN(C2(C)CCOCC2)CC1 [Example 184, 1-(2-isopropoxyethyl)-4-(4-methyltetrahydro-2H-pyran-4-yl)piperazine] | ++ |
| CC(C)OCCN1CCN(C2(C(=O)c3ccccn3)CCOCC2)CC1 [Example 185, (4-(4-(2-isopropoxyethyl)piperazin-1-yl)tetrahydro-2H-pyran-4-yl)(pyridin-2-yl)methanone] | ++ |
| CC(C)OCCN1CCN([C@@]2(C(=O)c3ccccn3)CCO[C@@H](C)C2)CC1 [Example 190, ((2S,4S)-4-(4-(2-isopropoxyethyl)piperazin-1-yl)-2-methyltetrahydro-2H-pyran-4-yl)(pyridin-2-yl)methanone] | ++ |
| C[C@@H]1C[C@](C(=O)c2ccccn2)(N2CCN(CCc3ccccc3)CC2)CCO1 [Example 240, ((2R,4R)-2-methyl-4-(4-phenethylpiperazin-1-yl)tetrahydro-2H-pyran-4-yl)(pyridin-2-yl)methanone] | ++ |

same assay, conditions: one class symbol for both Ki-σ1 (human σ1 receptor, A1) and Ki-μ (human μ-opioid receptor, A2); read-out: μ and σ1 dual binding

| SMILES | Ki |
| --- | --- |
| CC1(C2CCN(Cc3ccccc3)CC2)CCOCC1 [Example 165, 1-benzyl-4-(4-methyltetrahydro-2H-pyran-4-yl)piperidine] | > 500 nM |
| CCC1(C2CCN(Cc3ccccc3)CC2)CCOCC1 [Example 166, 1-benzyl-4-(4-ethyltetrahydro-2H-pyran-4-yl)piperidine] | > 500 nM |
| CC(C)CCN1CCN([C@]2(C(=O)c3ccccn3)CCO[C@@H](C)C2)CC1 [Example 169] | < 500 nM |
| N#Cc1cc(CN2CCN(C3(C(=O)c4ccccn4)CCOCC3)CC2)ccc1F [Example 188, 2-fluoro-5-((4-(4-picolinoyltetrahydro-2H-pyran-4-yl)piperazin-1-yl)methyl)benzonitrile] | > 500 nM |
| CC(C)OCCN1CCN([C@]2(C(=O)c3ccccn3)CCO[C@H](C)C2)CC1 [Example 189, ((2R,4R)-4-(4-(2-isopropoxyethyl)piperazin-1-yl)-2-methyltetrahydro-2H-pyran-4-yl)(pyridin-2-yl)methanone] | > 500 nM |
| N#Cc1ccc(CN2CCN(C3(C4CC4)CCOCC3)CC2)cc1 [Example 191, 4-((4-(4-cyclopropyltetrahydro-2H-pyran-4-yl)piperazin-1-yl)methyl)benzonitrile] | > 500 nM |
| N#Cc1ccc(CN2CCN(C3(C(=O)c4ccccn4)CCOCC3)CC2)cc1F [Example 192, 2-fluoro-4-((4-(4-picolinoyltetrahydro-2-pyran-4-yl)piperazin-1-yl)methyl)benzonitrile] | > 500 nM |
| N#Cc1cccc(CN2CCN(C3(C(=O)c4ccccn4)CCOCC3)CC2)c1 [Example 193, 3-((4-(4-picolinoyltetrahydro-2H-pyran-4-yl)piperazin-1-yl)methyl)benzonitrile] | > 500 nM |
| O=C(c1ccccn1)C1(N2CCN(Cc3ccc(OC(F)(F)F)cc3)CC2)CCOCC1 [Example 194, pyridin-2-yl(4-(4-(4-(trifluoromethoxy)benzyl)piperazin-1-yl)tetrahydro-2H-pyran-4-yl)methanone] | > 500 nM |
| COc1ccc(CN2CCN(C3(C(=O)c4ccccn4)CCOCC3)CC2)cc1 [Example 195, (4-(4-(4-methoxybenzyl)piperazin-1-yl)tetrahydro-2H-pyran-4-yl)(pyridin-2-yl)methanone] | > 500 nM |
| COc1ccc(CN2CCN(C3(C(=O)c4ccccn4)CCOCC3)CC2)cc1F [Example 196, (4-(4-(3-fluoro-4-methoxybenzyl)piperazin-1-yl)tetrahydro-2H-pyran-4-yl)(pyridin-2-yl)methanone] | > 500 nM |
| O=C(c1ccccn1)C1(N2CCN(Cc3ccc(F)c(F)c3)CC2)CCOCC1 [Example 197, (4-(4-(3,4-difluorobenzyl)piperazin-1-yl)tetrahydro-2H-pyran-4-yl)(pyridin-2-yl)methanone] | > 500 nM |
| COc1cc(CN2CCN(C3(C(=O)c4ccccn4)CCOCC3)CC2)ccc1F [Example 198, (4-(4-(4-fluoro-3-methoxybenzyl)piperazin-1-yl)tetrahydro-2H-pyran-4-yl)(pyridin-2-yl)methanone] | > 500 nM |

same assay, conditions: μ and σ1 dual binding, one class symbol for both Ki-σ1 (human σ1 receptor, A1) and Ki-μ (human μ-opioid receptor, A2)

| SMILES | Ki |
| --- | --- |
| CC[C@]1(N2CCN(CCOC(C)C)CC2)CCO[C@@H](C)C1 [Example 157, 1-((2S,4S)-4-ethyl-2-methyltetrahydro-2H-pyran-4-yl)-4-(2-isopropoxyethyl)piperazine] | < 100 nM |
| C[C@H]1C[C@@](C(=O)c2ccccn2)(N2CCN(CCc3ccccc3F)CC2)CCO1 [Example 170] | < 500 nM |
